# Literature values, collected in patent US20110070305A1, “SUSTAINED RELEASE PHARMACEUTICAL COMPOSITION CONTAINING MEBICAR” (ALPHARX INC., priority 2009, published 2011).
# What was measured:
# [1] = orally administered
compound,measurement,setting,value
CN1C(=O)N(C)C2C1N(C)C(=O)N2C (stereo not drawn) [Mebicar],solubility in alcohol and most polar organic solvents,alcohol and most polar organic solvents,soluble
same,solubility in water,"water, ambient temperature",about 50%
same,half-life,[1],approximately 3 hours
